Reference: PubChem BioAssay AID1259407 (Chemical Carcinogenesis Research Information System (CCRIS), 2018)
Activity calls are given as the source filed them. How the calls were made is not given here.

System: CCRIS mutagenicity, Ames/micronucleus/aberration tests
Assay: CCRIS mutagenicity studies
[1] = Test System: AMES SALMONELLA TYPHIMURIUM, Strain/Indicator: TA98, Metabolic Activation: NONE, Method: PREINCUBATION
[2] = Test System: AMES SALMONELLA TYPHIMURIUM, Strain/Indicator: TA100, Metabolic Activation: NONE, Method: PREINCUBATION
[3] = Test System: AMES SALMONELLA TYPHIMURIUM, Strain/Indicator: TA98, Metabolic Activation: NONE, Method: STANDARD PLATE
[4] = Test System: AMES SALMONELLA TYPHIMURIUM, Strain/Indicator: TA100, Metabolic Activation: NONE, Method: STANDARD PLATE

## Nc1ccccc1C(=O)OC/C=C/c1ccccc1
End Point: IN VITRO CHROMOSOMAL ABERRATIONS, Test System: CHINESE HAMSTER LUNG FIBROBLAST CELLS (CHL/IU), Metabolic Activation: NONE
  mutagenic call: inactive; negative
End Point: IN VITRO CHROMOSOMAL ABERRATIONS, Test System: CHO CELLS, Metabolic Activation: NONE
  mutagenic call: inactive; negative
End Point: IN VITRO CHROMOSOMAL ABERRATIONS, Test System: CHO CELLS, Metabolic Activation: RAT, LIVER, S-9, AROCLOR 1254
  mutagenic call: inactive; negative
Test System: AMES SALMONELLA TYPHIMURIUM, Strain/Indicator: TA97, Metabolic Activation: HAMSTER, LIVER, S-9, AROCLOR 1254 (10%), Method: PREINCUBATION
  mutagenic call: inactive; negative
Test System: AMES SALMONELLA TYPHIMURIUM, Strain/Indicator: TA97, Metabolic Activation: HAMSTER, LIVER, S-9, AROCLOR 1254 (30%), Method: PREINCUBATION
  mutagenic call: inactive; negative
Test System: AMES SALMONELLA TYPHIMURIUM, Strain/Indicator: TA97, Metabolic Activation: NONE, Method: PREINCUBATION
  mutagenic call: inactive; negative
Test System: AMES SALMONELLA TYPHIMURIUM, Strain/Indicator: TA97, Metabolic Activation: RAT, LIVER, S-9, AROCLOR 1254 (10%), Method: PREINCUBATION
  mutagenic call: inactive; negative
Test System: AMES SALMONELLA TYPHIMURIUM, Strain/Indicator: TA97, Metabolic Activation: RAT, LIVER, S-9, AROCLOR 1254 (30%), Method: PREINCUBATION
  mutagenic call: inactive; negative
Test System: AMES SALMONELLA TYPHIMURIUM, Strain/Indicator: TA98, Metabolic Activation: HAMSTER, LIVER, S-9, AROCLOR 1254 (10%), Method: PREINCUBATION
  mutagenic call: inactive; negative
Test System: AMES SALMONELLA TYPHIMURIUM, Strain/Indicator: TA98, Metabolic Activation: HAMSTER, LIVER, S-9, AROCLOR 1254 (30%), Method: PREINCUBATION
  mutagenic call: inactive; negative
[1]
  mutagenic call: inactive; negative
Test System: AMES SALMONELLA TYPHIMURIUM, Strain/Indicator: TA98, Metabolic Activation: RAT, LIVER, S-9, AROCLOR 1254 (10%), Method: PREINCUBATION
  mutagenic call: inactive; negative
Test System: AMES SALMONELLA TYPHIMURIUM, Strain/Indicator: TA98, Metabolic Activation: RAT, LIVER, S-9, AROCLOR 1254 (30%), Method: PREINCUBATION
  mutagenic call: inactive; negative
Test System: AMES SALMONELLA TYPHIMURIUM, Strain/Indicator: TA100, Metabolic Activation: HAMSTER, LIVER, S-9, AROCLOR 1254 (10%), Method: PREINCUBATION
  mutagenic call: inactive; negative
Test System: AMES SALMONELLA TYPHIMURIUM, Strain/Indicator: TA100, Metabolic Activation: HAMSTER, LIVER, S-9, AROCLOR 1254 (30%), Method: PREINCUBATION
  mutagenic call: inactive; negative
[2]
  mutagenic call: inactive; negative
Test System: AMES SALMONELLA TYPHIMURIUM, Strain/Indicator: TA100, Metabolic Activation: RAT, LIVER, S-9, AROCLOR 1254 (10%), Method: PREINCUBATION
  mutagenic call: inactive; negative
Test System: AMES SALMONELLA TYPHIMURIUM, Strain/Indicator: TA100, Metabolic Activation: RAT, LIVER, S-9, AROCLOR 1254 (30%), Method: PREINCUBATION
  mutagenic call: inactive; negative
Test System: AMES SALMONELLA TYPHIMURIUM, Strain/Indicator: TA1535, Metabolic Activation: HAMSTER, LIVER, S-9, AROCLOR 1254 (10%), Method: PREINCUBATION
  mutagenic call: inactive; negative
Test System: AMES SALMONELLA TYPHIMURIUM, Strain/Indicator: TA1535, Metabolic Activation: HAMSTER, LIVER, S-9, AROCLOR 1254 (30%), Method: PREINCUBATION
  mutagenic call: inactive; negative
Test System: AMES SALMONELLA TYPHIMURIUM, Strain/Indicator: TA1535, Metabolic Activation: NONE, Method: PREINCUBATION
  mutagenic call: inactive; negative
Test System: AMES SALMONELLA TYPHIMURIUM, Strain/Indicator: TA1535, Metabolic Activation: RAT, LIVER, S-9, AROCLOR 1254 (10%), Method: PREINCUBATION
  mutagenic call: inactive; negative
Test System: AMES SALMONELLA TYPHIMURIUM, Strain/Indicator: TA1535, Metabolic Activation: RAT, LIVER, S-9, AROCLOR 1254 (30%), Method: PREINCUBATION
  mutagenic call: inactive; negative
Test System: E. COLI, Strain/Indicator: WP2 UVRA, Metabolic Activation: HAMSTER, LIVER, S-9, AROCLOR 1254, Method: STANDARD PLATE
  mutagenic call: inactive; negative
Test System: E. COLI, Strain/Indicator: WP2 UVRA, Metabolic Activation: NONE, Method: STANDARD PLATE
  mutagenic call: inactive; negative
Test System: Mouse lymphoma, Strain/Indicator: L5178Y (tk+/tk-), Metabolic Activation: None, Method: Suspension/plate
  mutagenic call: inactive; negative
Test System: Mouse lymphoma, Strain/Indicator: L5178Y (tk+/tk-), Metabolic Activation: Rat, Liver, S-9, Aroclor 1254, Method: Suspension/plate
  mutagenic call: active; equivocal (previous evaluation positive)
Test System: UDS RAT HEPATOCYTES, Strain/Indicator: BROMODEOXYURIDINE INCORP, Metabolic Activation: NONE, Method: FLOW CYTOMETRIC ANALYSIS
  mutagenic call: inactive; negative
Test System: UDS RAT HEPATOCYTES, Strain/Indicator: THY INCORP, Metabolic Activation: NONE, Method: AUTORADIOGRAPHY
  mutagenic call: inactive; negative

## C/C(O)=C(\N=O)C(=O)N(c1ccccc1)N(C)N=O
[1]
  mutagenic call: active; positive
Test System: AMES SALMONELLA TYPHIMURIUM, Strain/Indicator: TA98, Method: PREINCUBATION
  mutagenic call: active; positive
[2]
  mutagenic call: active; positive
Test System: AMES SALMONELLA TYPHIMURIUM, Strain/Indicator: TA100, Method: PREINCUBATION
  mutagenic call: active; positive

## O=[N+]([O-])c1ccc2ccc3cc4c(c5ccc1c2c35)CCCC4
[3]
  mutagenic call: active; positive
[4]
  mutagenic call: inactive; negative

## COC1=CC(=O)c2c(ncc3c2[nH]c2ccncc23)C1=O
Test System: AMES SALMONELLA TYPHIMURIUM, Strain/Indicator: TA97A, Metabolic Activation: NONE, Method: STANDARD PLATE
  mutagenic call: active; positive
Test System: AMES SALMONELLA TYPHIMURIUM, Strain/Indicator: TA97A, Metabolic Activation: RAT LIVER S-9, AROCLOR 1254, Method: STANDARD PLATE
  mutagenic call: inactive; negative
[3]
  mutagenic call: active; positive
Test System: AMES SALMONELLA TYPHIMURIUM, Strain/Indicator: TA98, Metabolic Activation: RAT LIVER S-9, AROCLOR 1254, Method: STANDARD PLATE
  mutagenic call: active; positive
[4]
  mutagenic call: active; positive
Test System: AMES SALMONELLA TYPHIMURIUM, Strain/Indicator: TA100, Metabolic Activation: RAT LIVER S-9, AROCLOR 1254, Method: STANDARD PLATE
  mutagenic call: active; positive
Test System: AMES SALMONELLA TYPHIMURIUM, Strain/Indicator: TA102, Metabolic Activation: NONE, Method: STANDARD PLATE
  mutagenic call: active; positive
Test System: AMES SALMONELLA TYPHIMURIUM, Strain/Indicator: TA102, Metabolic Activation: RAT LIVER S-9, AROCLOR 1254, Method: STANDARD PLATE
  mutagenic call: active; positive

## Cc1cc2c(cc1N=O)OCO2
[2]
  mutagenic call: active; positive
Test System: AMES SALMONELLA TYPHIMURIUM, Strain/Indicator: TA100, Metabolic Activation: RAT, LIVER, S-9, PHENOBARBITAL AND 5,6-BENZOFLAVONE, Method: PREINCUBATION
  mutagenic call: active; positive
